How the values were obtained:
Type in all cases: cell-based
[1] = biological target: T1, AR protein (Homo sapiens, UniProt P10275, T878A); experiment: AR protein degradation in LNCaP cells (Western blot); conditions: 8 hours; for Degradation of AR protein in LNCaP cells, 10 nM (%) / percent AR protein degradation at a fixed concentration at 0.01 µM: 10 nM; for Degradation of AR protein in LNCaP cells, 100 nM (%) / percent AR protein degradation at a fixed concentration at 0.1 µM: 100 nM
T1 construct: host or cells: LNCaP FGC
T1 sequence (P10275 1-920 T878A): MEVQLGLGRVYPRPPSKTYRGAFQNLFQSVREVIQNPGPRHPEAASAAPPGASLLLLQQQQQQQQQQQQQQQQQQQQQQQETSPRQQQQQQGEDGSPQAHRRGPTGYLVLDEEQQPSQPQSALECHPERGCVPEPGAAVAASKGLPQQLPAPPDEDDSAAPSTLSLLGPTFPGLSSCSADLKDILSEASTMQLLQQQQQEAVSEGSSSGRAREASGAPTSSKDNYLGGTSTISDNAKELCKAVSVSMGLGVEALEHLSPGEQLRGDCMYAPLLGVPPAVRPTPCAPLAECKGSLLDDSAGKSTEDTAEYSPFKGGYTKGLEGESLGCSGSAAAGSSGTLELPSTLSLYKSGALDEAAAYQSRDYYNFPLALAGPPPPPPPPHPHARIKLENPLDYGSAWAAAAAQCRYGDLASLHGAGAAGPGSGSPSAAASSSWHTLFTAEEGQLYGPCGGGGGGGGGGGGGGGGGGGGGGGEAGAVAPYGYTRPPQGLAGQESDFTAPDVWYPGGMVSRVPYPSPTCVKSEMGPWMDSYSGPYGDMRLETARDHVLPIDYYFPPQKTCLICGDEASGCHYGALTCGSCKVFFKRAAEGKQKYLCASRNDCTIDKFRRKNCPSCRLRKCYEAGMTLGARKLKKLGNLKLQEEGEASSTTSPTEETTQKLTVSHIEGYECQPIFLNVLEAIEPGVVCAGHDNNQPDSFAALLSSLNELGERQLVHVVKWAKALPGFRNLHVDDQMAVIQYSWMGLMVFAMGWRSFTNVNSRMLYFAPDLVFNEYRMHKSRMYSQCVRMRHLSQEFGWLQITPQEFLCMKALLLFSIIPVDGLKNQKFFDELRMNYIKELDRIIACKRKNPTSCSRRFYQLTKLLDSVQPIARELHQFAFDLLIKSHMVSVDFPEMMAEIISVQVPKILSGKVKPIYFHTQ
Method in brief: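 LNCaP cells exposed to compound or solvent control for 8 h, lysed in RIPA, protein normalized by BCA. AR detected by SDS-PAGE/Western blot with infrared imaging; band grayscale normalized to GAPDH to calculate AR degradation rate.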

[2] = tested on: VCaP cells; experiment: Inhibition of VCaP cell proliferation (WST-8); conditions: Homo sapiens, 168 hours
Method in brief: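 VCaP cells seeded at 15,000/well in DMEM + 10% FBS, treated next day with nine 5-fold dilutions from 10 µM (final) at 37°C, 5% CO2. Viability read by WST-8 absorbance at 450 nm on day 9.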

[3] = tested on: LNCaP cells; experiment: Inhibition of LNCaP cell proliferation (WST-8); conditions: Homo sapiens, LNCaP FGC cells, 96 hours
Method in brief: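 Cells were seeded and cultured overnight at 37 °C, 5% CO2, then exposed for 96 h to compound at 9 concentrations, 5-fold serial dilution from 10 µM final. Viability was read by WST-8 absorbance at 450 nm.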

SMILES | Degradation of AR protein in LNCaP cells, 10 nM (%) [1] [%] | Degradation of AR protein in LNCaP cells, 100 nM (%) [1] [%] | IC50 [2] [nM] | IC50 [3] [µM] | percent AR protein degradation at a fixed concentration at 0.01 µM [1] [%] | percent AR protein degradation at a fixed concentration at 0.1 µM [1] [%]
N#Cc1ccc(O[C@H]2CC[C@H](NC(=O)c3ccc(N4CCC(N5CC6(CCC7(CC6)COc6c7ccc7c6CN(C6CCC(=O)NC6=O)C7=O)C5)CC4)nn3)CC2)cc1Cl (relative stereo) [A-P-1, N-((1r,4r)-4-(3-chloro-4-cyanophenoxy)cyclohexyl)-6-(4-(7'-(2,6-dioxopiperidin-3-yl)-6'-oxo-7',8'-dihydro-2'-H,6'-H-dihydro[azetidine-3,1'-cyclohexane-4',3"-furo[2,3-e]isoindol]-1-yl)piperidin-1-yl)pyridazine-3-carboxamide] | 66 | 48 | 0.026 | > 10 |  | 
COc1cc(O[C@H]2C(C)(C)[C@H](NC(=O)c3ccc(N4CCC(CN5CC6(CCC7(CC6)COc6c7ccc7c6CN(C6CCC(=O)NC6=O)C7=O)C5)CC4)cc3)C2(C)C)ccc1C#N (relative stereo) [A-P-3] | 64 | 65 | 0.017 | 3.43 |  | 
COc1cc(O[C@H]2C(C)(C)[C@H](NC(=O)c3ccc(N4CCC(C)(CN5CC6(CCC7(CC6)COc6c7ccc7c6CN(C6CCC(=O)NC6=O)C7=O)C5)CC4)cc3)C2(C)C)ccc1C#N (relative stereo) [A-P-4] | 74 | 83 | 0.19 | 3.52 |  | 
COc1cc(O[C@H]2C(C)(C)[C@H](NC(=O)c3ccc(N4CCC(F)(CN5CC6(CCC7(CC6)COc6c7ccc7c6CN(C6CCC(=O)NC6=O)C7=O)C5)CC4)cc3)C2(C)C)ccc1C#N (relative stereo) [A-P-5] | 43 | 62 | 1.7 | 1 |  | 
N#Cc1ccc(O[C@H]2CC[C@H](NC(=O)c3ccc(N4CCC(N5CCC6(CC5)CCC5(CC6)COc6c5ccc5c6CN(C6CCC(=O)NC6=O)C5=O)CC4)nn3)CC2)cc1Cl (relative stereo) [A-P-7, N-((1r,4r)-4-(3-chloro-4-cyanophenoxy)cyclohexy 1)-6-(4-(7-(2,6-dioxopiperidin-3-yl)-6-oxo-7,8-dihydro-2H,6H-dipyridyl[2,3-e]isoindole-3,1'-cyclohexane-4',4'"-piperidin]-1"-yl)pyridazine-3-carboxamide] | 85 | 75 | 6 | 1.88 |  | 
Cn1c(=O)n(C2CCC(=O)NC2=O)c2cc3c(cc21)C1(CCN(C2CC4(CCN(c5ccc(C(=O)N[C@H]6CC[C@H](Oc7ccc(C#N)c(Cl)c7)CC6)nn5)CC4)C2)CC1)CO3 (relative stereo) [A-P-12, N-((1r,4r)-4-(3-chloro-4-cyanophenoxy)cyclohexy 1)-6-(2-(3-(2,6-dioxopiperidin-3-yl)-1-methyl-2-oxo-2,3-dihydro-1H,6H-spiro[benzofuro[5,6-d]imidazole-7,4'-piperidin]-1'-yl)-7-azaspiro[3.5]nonan-7-yl)pyridazine-3-carboxamide] | 56 | 9 | 0.023 | 8.11 |  | 
COc1cc(O[C@H]2C(C)(C)[C@H](NC(=O)c3ccc(N4CCC5(CC4)CC(N4CCC6(CC4)COc4cc7c(cc46)n(C)c(=O)n7C4CCC(=O)NC4=O)C5)nn3)C2(C)C)ccc1C#N (relative stereo) [A-P-14, N-((1r,3r)-3-(4-cyano-3-methoxyphenoxy)-2,2,4,4-tetramethylcyclobutyl)-6-(2-(3-(2,6-dioxopiperidin-3-yl)-1-methyl-2-oxo-2,3-dihydro-1H,6H-spiro[benzofuro[5,6-d]imidazole-7,4'-piperidin]-1'-yl)-7-azaspiro[3.5]nonan-7-yl)pyridazine-3-carboxamide] | 36 | 32 | 2.2 | 1.1 |  | 
COc1cc(O[C@H]2C(C)(C)[C@H](NC(=O)c3ccc(N4CCC(C)(CN5CCC6(CC5)COc5cc7c(cc56)n(C)c(=O)n7C5CCC(=O)NC5=O)CC4)cc3)C2(C)C)ccc1C#N (relative stereo) [A-P-16] | 49 | 29 | 1 | > 90 |  | 
COc1cc(O[C@H]2CC[C@H](NC(=O)c3ccc(N4CCC(CN5CCC6(CC5)COc5cc7c(cc56)n(C)c(=O)n7C5CCC(=O)NC5=O)CC4)nn3)CC2)ccc1C#N (relative stereo) [A-P-17] | 1 | -18 | 72 | 91.2 |  | 
COc1cc(O[C@H]2C(C)(C)[C@H](NC(=O)c3ccc(N4CCC5(CC4)CC(N4CCC6(CC4)COc4cc7c(cc46)n(C)c(=O)n7C4CCC(=O)NC4=O)C5)cc3)C2(C)C)ccc1C#N (relative stereo) [A-P-21] | 52 | 55 | 2 | 8.23 |  | 
COc1cc(O[C@H]2C(C)(C)[C@H](NC(=O)c3ccc(N4CCC(N5CC6(CCC7(CC6)COc6c7ccc7c6CN(C6CCC(=O)NC6=O)C7=O)C5)CC4)cc3)C2(C)C)ccc1C#N (stereo partly drawn) [A-P-2] |  |  | 0.06 | 2.89 | -42 | 43
Cn1c(=O)n(C2CCC(=O)NC2=O)c2cc3c(cc21)C1(CCN(CC2CCN(c4ccc(C(=O)N[C@H]5CC[C@H](Oc6ccc(C#N)c(Cl)c6)CC5)nn4)CC2)CC1)CO3 (stereo partly drawn) [A-P-10] |  |  | 6 | 137 | 47 | 5
COc1cc(O[C@H]2C(C)(C)[C@H](NC(=O)c3ccc(N4CCC(F)(CN5CCC6(CC5)COc5cc7c(cc56)n(C)c(=O)n7C5CCC(=O)NC5=O)CC4)cc3)C2(C)C)ccc1C#N (stereo partly drawn) [A-P-13] |  |  | 4.3 | 61 | 32 | 35
COc1cc(O[C@H]2CC[C@H](NC(=O)c3ccc(N4CCC(N5CCC6(CC5)COc5cc7c(cc56)n(C)c(=O)n7C5CCC(=O)NC5=O)CC4)nn3)CC2)ccc1C#N (stereo partly drawn) [A-P-18, N-((1r,4r)-4-(4-cyano-3-methoxyphenoxy)cyclohexyl)-6-(4-(3-(2,6-dioxopyridyl-3-yl)-1-methyl-2-oxo-2,3-dihydro-1H,6H-spiro[benzofuro[5,6-d]imidazole-7,4'-piperidin]-1'-yl)piperidin-1-yl)pyridazine-3-carboxamide] |  |  | < 0.0051 | 120 | 43 | 11
COc1cc(O[C@H]2CC[C@H](NC(=O)c3ccc(N4CCC(CN5CCC6(CC5)COc5c6ccc6c5n(C)c(=O)n6C5CCC(=O)NC5=O)CC4)nn3)CC2)ccc1C#N (stereo partly drawn) [A-P-22] |  |  | 0.026 | 47.6 | 48 | 25
Cn1c(=O)n(C2CCC(=O)NC2=O)c2ccc3c(c21)OCC31CCN(C2CCN(c3ccc(C(=O)N[C@H]4CC[C@H](Oc5ccc(C#N)c(Cl)c5)CC4)nn3)CC2)CC1 (stereo partly drawn) [A-P-23] |  |  | 0.046 | 22.4 | 37 | 14
Cn1c(=O)n(C2CCC(=O)NC2=O)c2ccc3c(c21)OCC31CCN(CC2CCN(c3ccc(C(=O)N[C@H]4CC[C@H](Oc5ccc(C#N)c(Cl)c5)CC4)nn3)CC2)CC1 (stereo partly drawn) [A-P-24] |  |  | 0.0081 | 22.8 | 49 | 29
Cn1c(=O)n(C2CCC(=O)NC2=O)c2ccc3c(c21)OCC31CCN(C2CC3(CCN(c4ccc(C(=O)N[C@H]5CC[C@H](Oc6ccc(C#N)c(Cl)c6)CC5)nn4)CC3)C2)CC1 (stereo partly drawn) [A-P-25] |  |  | 0.14 | 47.7 | 58 | 31

Source: patent EP4722219A1 (Gan & Lee Pharmaceuticals Co., Ltd., priority 2023, dated 2024)
